Results reported in paper PMC6146376, “Rational design of new cyclic analogues of the antimicrobial lipopeptide tridecaptin A1” (Chemical Communications (Cambridge, England), 2018).
Non-standard residues stand in square brackets, D forms with d. Residues, ends and D or L forms follow the SMILES beside them. *: point of attachment. d(aIle) = CC[C@H](C)[C@@H](N)C(=O)O; dAllylGly = C=CC[C@@H](N)C(=O)O; AllylGly = C=CC[C@H](N)C(=O)O; dDab = NCC[C@@H](N)C(=O)O; Octanoyl = CCCCCCCC(=O)*; Dab = NCC[C@H](N)C(=O)O

Columns and labels:
[1] = test system: Staphylococcus aureus NCTC 10788; assay type: cell-based; details: NCTC 10788, 18 h
Procedure: (§1) [formula] Scheme 1 Synthesis of novel cyclic analogues of TriA1. MIC = minimum inhibitory concentration. Determined by microbroth dilutions assays and experiments run in duplicate. Values are shown to two significant figures and reported in μg mL^–1. ^a Strain NCTC 12241. ^b Strain NCTC 10788. ^c Strain NCTC 9633. ^d Strain NCTC 13304. ^e Strain NCTC 5920. […]
(§2) VIII. Antimicrobial testing
(§3) All minimum inhibitory concentrations (MICs) were determined according to Clinical and Standards Laboratory Institute (CLSI) guidelines.5 Briefly, peptides were dissolved in Muller-Hinton Broth (MHB) and serial dilutions made across a 96 well plate. Each well was inoculated with a suspension of the required bacterial strain to reach a final inoculum of 5 x 10^5 colony forming units per mL. The MIC was taken as the lowest concentration with no visible growth after 18 hours. […]

[2] = test system: Escherichia coli NCTC 12241; assay type: cell-based; details: NCTC 12241, 18 h
Procedure: as §1, §2, §3

[3] = assay type: physicochemical; details: pH 7.4
Procedure: The D-stereoselective peptidase TriF is a membrane associated protein found in Paenibacillus polymyxa CICC 10580.[7] TriFpep, the soluble periplasmic peptidase domain of TriF, which lacks the signal peptide and four hydrophobic transmembrane helices, was expressed in E. coli BL21 cells as a C-terminal His6-tag protein construct.[7] TriA1 analogues 1–9 were incubated with TriFpep at 37 °C for 12 h and the reaction mixtures analysed by UPLC-MS. […] We were unable to test the stability of Oct-cTriA1(biphenyl) (9) as it is insoluble in the TriF assay mixture. […] These analogues therefore represent a new scaffold of macrocyclic peptides with selective activity against Gram-negative bacteria. […]
All minimum inhibitory concentrations (MICs) were determined according to Clinical and Standards Laboratory Institute (CLSI) guidelines.5 Briefly, peptides were dissolved in Muller-Hinton Broth (MHB) and serial dilutions made across a 96 well plate. […]
TriFpep was expressed and purified as previously described.3 An assay mixture (total volume 30 μL in 25% phosphate-buffered saline (PBS) buffer, pH 7.4) containing TriFpep (2.0 μM) and the desired peptide (added as a DMSO solution to give a final concentration of 20 μM) was prepared and incubated for 12 h at 37 °C. […] The samples were centrifuged at 15,000 rpm for 10 min and 2 μL of the supernatant was analyzed by UPLC–MS system as previously described.3

[4] = test system: bacterial indicator strains; test: Antimicrobial activity, strain not named in the sentence (microbroth dilution); assay type: cell-based; details: highest concentration tested 50 μg mL^–1
Procedure: as §1, §2, §3

Structure (SMILES)	MIC S. aureus [1]	MIC E. coli [2]	solubility in the TriF assay mixture [3]	antimicrobial activity (MIC bound, strain not named) [4]
CCCCCCCC(=O)N[C@@H](C(=O)N[C@H](CCN)C(=O)NCC(=O)N[C@H](CO)C(=O)N[C@H](Cc1c[nH]c2ccccc12)C(=O)N[C@@H](CO)C(=O)N[C@@H](CCN)C(=O)N[C@H](CCN)C(=O)N[C@@H](Cc1ccccc1)C(=O)N[C@@H](CCC(=O)O)C(=O)N[C@H](C(=O)N[C@@H](C(=O)N[C@@H](C)C(=O)O)[C@@H](C)CC)C(C)C)C(C)C [Peptide 1, Oct-TriA1]	25 μg mL^–1	0.39 μg mL^–1		
C=CCSC[C@H](NC(=O)[C@@H](CCN)NC(=O)[C@H](CCN)NC(=O)[C@H](CO)NC(=O)[C@@H](CSCC=C)NC(=O)[C@@H](CO)NC(=O)CNC(=O)[C@@H](CCN)NC(=O)[C@H](NC(=O)CCCCCCC)C(C)C)C(=O)N[C@@H](CCC(=O)O)C(=O)N[C@H](C(=O)N[C@@H](C(=O)N[C@@H](C)C(=O)O)[C@@H](C)CC)C(C)C [Peptide 3, Oct-TriA1-(5-D-Sac, 9-Sac)]	>50 μg mL^–1	>50 μg mL^–1		
CCCCCCCC(=O)N[C@@H](C(=O)N[C@H](CCN)C(=O)NCC(=O)N[C@H](CO)C(=O)N[C@@H]1CSCc2ccc(cc2)-c2ccc(cc2)CSC[C@@H](C(=O)N[C@@H](CCC(=O)O)C(=O)N[C@H](C(=O)N[C@@H](C(=O)N[C@@H](C)C(=O)O)[C@@H](C)CC)C(C)C)NC(=O)[C@@H](CCN)NC(=O)[C@H](CCN)NC(=O)[C@H](CO)NC1=O)C(C)C [Peptide 9, Oct-cTriA1 (biphenyl)]			insoluble	> 50 μg mL^–1

Now from value to compound, other results behind:

MIC S. aureus [1]	MIC E. coli [2]	Structure (SMILES)	solubility in the TriF assay mixture [3]	antimicrobial activity (MIC bound, strain not named) [4]
>50 μg mL^–1	>50 μg mL^–1	C=CC[C@H](NC(=O)[C@@H](CCN)NC(=O)[C@H](CCN)NC(=O)[C@H](CO)NC(=O)[C@@H](CC=C)NC(=O)[C@@H](CO)NC(=O)CNC(=O)[C@@H](CCN)NC(=O)[C@H](NC(=O)CCCCCCC)C(C)C)C(=O)N[C@@H](CCC(=O)O)C(=O)N[C@H](C(=O)N[C@@H](C(=O)N[C@@H](C)C(=O)O)[C@@H](C)CC)C(C)C [Peptide 2, Oct-TriA1-(5-D-Agl, 9-Agl)] (Octanoyl-[dV][dDab]G[dS][dAllylGly]S[Dab][dDab][AllylGly]EV[d(aIle)]A-OH)		
>50 μg mL^–1	>50 μg mL^–1	CCCCCCCC(=O)N[C@@H](C(=O)N[C@H](CCN)C(=O)NCC(=O)N[C@H](CO)C(=O)N[C@H](CS)C(=O)N[C@@H](CO)C(=O)N[C@@H](CCN)C(=O)N[C@H](CCN)C(=O)N[C@@H](CS)C(=O)N[C@@H](CCC(=O)O)C(=O)N[C@H](C(=O)N[C@@H](C(=O)N[C@@H](C)C(=O)O)[C@@H](C)CC)C(C)C)C(C)C [Peptide 4, Oct-TriA1-(5-D-Cys, 9-Cys)]		
